Data reported in article PMC10149936, “Cofilin activation in pancreatic acinar cells plays a pivotal convergent role for mediating CCK-stimulated enzyme secretion and growth” (Frontiers in Physiology, 2023).
Read-outs that look alike come from different tables or passages of the source.

Key:
[1] = tested on: cofilin (pS3) in CCK1-R/Panc-1 cells; experiment: cofilin activation (pS3 cofilin Western blot) in CCK1-R/Panc-1 cells; assay type: cell-based, human; conditions: CCK-8 0.3 and 100 nM, 5 min
Description: CCK1 receptor transfected Panc-1 (CCK1-R/Panc-1) cells ([Berna et al., 2009]) and AR42J cells, were cultured in DMEM supplemented with 10% FBS and 1% penicillin/streptomycin and in RPMI supplemented with 10% FBS and 1% penicillin/streptomycin, respectively; and split 1:10 weekly with trypsin/EDTA, after washing in PBS. Finally, cells were seeded in 6-well plate and serum starved overnight, until they were 80% confluent. Cells were incubated at 37°C in 5% CO2/95% air. AR42J cells were treated with 100 nM dexamethasone for 72°h, which stimulates their differentiation into exocrine cells ([Logsdon, 1986]).
Pancreatic acini preparations were obtained by collagenase digestion as previously described ([Bissonnette et al., 1984]; [Sato et al., 1989]; [Ramos-Alvarez and Jensen, 2018]). […] Isolated acini and CCK1-R/Panc-1 cells (M&M 2.2.1) were also preincubated with two SSH1 inhibitors, D3 (25 μM, 1 h) ([Li et al., 2015]) or SE (50 μM, 3 h for acini; 24 h for CCK1-R/Panc-1 cells) ([Lee et al., 2017]). […] After sonication, lysates were centrifuged at 10,000×g for 15 min at 4°C and protein concentration was measured using the Bio-Rad protein assay reagent. […]
(§1) Western blotting and immunoprecipitation were performed as described previously ([Ramos-Alvarez and Jensen, 2018]). […] The intensity of the protein bands was measured using GeneTools software from Syngene, which were assessed in the linear detection range. […]
FIGURE 3 Effect of two SSH1 inhibitors, D3 and SE (A–C), or SSH1 siRNA (D), on the ability of CCK-8 (0.3 and 100 nM) to activate LIMK and cofilin in pancreatic acini (A/B) and activate cofilin in CCK1-R/Panc-1 cells (C/D). […] Western blots were analyzed using anti-pS3 cofilin and anti-pT508 […], and the knockdown effect of SSH1 was confirmed by Western blots using SSH1 (C-term) antibody. Bands were visualized using chemiluminescence and quantified by densitometry. […] Results are expressed as % of basal stimulation of the control group. *, p < 0.05 compared to the control group; ∞, p < 0.05 compared to stimulants without inhibitors. […]

[2] = tested on: p44/42 MAPK in pancreatic acini; experiment: p44/42 MAPK activation (pT202/Y204 Western blot) in pancreatic acini; assay type: cell-based; conditions: Rattus norvegicus, Cytochalasin D 10 µM or Paclitaxel 5 µM, 3 h, range
Description: Pancreatic acini preparations were obtained by collagenase digestion as previously described ([Bissonnette et al., 1984]; [Sato et al., 1989]; [Ramos-Alvarez and Jensen, 2018]). […] Isolated acini and CCK1-R/Panc-1 cells (M&M 2.2.1) were also preincubated with two SSH1 inhibitors, D3 (25 μM, 1 h) ([Li et al., 2015]) or SE (50 μM, 3 h for acini; 24 h for CCK1-R/Panc-1 cells) ([Lee et al., 2017]). After preincubation, 1 mL aliquots of dispersed acini were incubated at 37°C for 3–15 min with CCK-8 (0.3 nM or 100 nM), for 5–15 min with TPA (1 µM) or without stimulants, used as control. Cells were lysed in lysis buffer (50 mM Tris/HCl pH 7.5, 150 mM NaCl, 1% Triton X-100, 1% deoxycholate, 0.1% sodium azide, 1 mM EGTA, 0.4 mM EDTA, 0.2 mM sodium orthovanadate, 1 mM PMSF, and one protease inhibitor tablet per 10 mL). After sonication, lysates were centrifuged at 10,000×g for 15 min at 4°C and protein concentration was measured using the Bio-Rad protein assay reagent. Finally, cells were processed as below for Western blotting.
as §1, with “2018]). Whole cell lysates were subjected to SDS-PAGE using 4%–20% Tris–Glycine gels.” for “2018]).”

Compound: COOH-terminal octapeptide of cholecystokinin [CCK-8]
- effect on cofilin phosphorylation in CCK1-R/Panc-1 cells [1]: caused rapidly dephosphorylation of cofilin

Compound: CC(=O)O[C@H]1C(=O)[C@@]2(C)[C@H]([C@H](OC(=O)c3ccccc3)[C@]3(O)C[C@H](OC(=O)[C@H](O)[C@@H](NC(=O)c4ccccc4)c4ccccc4)C(C)=C1C3(C)C)[C@]1(OC(C)=O)CO[C@@H]1C[C@@H]2O [Paclitaxel]
- inhibition at 5 µM ([2]; CCK-8 0.3 and 100 nM 3 min, read-out: inhibition of CCK-8-mediated p42/44 phosphorylation): 31 to 41%
- inhibition at 5 µM ([2]; TPA 1 µM 5 min, read-out: inhibition of TPA-mediated p42/44 phosphorylation): 27 to 30%
